Experimental data taken from patent publication US6084072A, “Purified lectin and methods of use” (The Regents of the University of Michigan, priority 1993, dated 2000).
“Also recorded” adds a separate entry of the source. Where two headings read alike, the source gives them in different places.

Assays:
[1] = biological target: T1, Artocarpus intergrifolia lectin (Artocarpus integer, UniProt P18670); conditions: cited from earlier work
T1 construct: host or cells: Artocarpus integrifolia seeds

amaranthin [2] = biological target: T2, amaranthin (Amaranthus caudatus, UniProt Q71QF2); test: Hapten inhibition of amaranthin/asialo-ovine submaxillary mucin precipitation; type: binding; conditions: for Relative Inhibition potency ACA: N-Acetylgalactosamine = 1
T2 sequence (Q71QF2 entry or part of it): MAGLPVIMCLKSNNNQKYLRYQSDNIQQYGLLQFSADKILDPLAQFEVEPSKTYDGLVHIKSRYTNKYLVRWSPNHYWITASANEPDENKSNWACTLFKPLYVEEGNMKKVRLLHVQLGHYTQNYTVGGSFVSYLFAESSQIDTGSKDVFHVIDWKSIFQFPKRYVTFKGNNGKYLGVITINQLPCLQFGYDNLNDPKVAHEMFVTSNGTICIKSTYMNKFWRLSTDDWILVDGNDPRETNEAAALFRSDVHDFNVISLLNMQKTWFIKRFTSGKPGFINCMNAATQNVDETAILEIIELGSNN
Method: (§1) Precipitation assays were conducted in 1.5 ml centrifuge tubes by the method of So and Goldstein. Indicated amounts of glycoprotein were added to 80 μg of amaranthin, and the total volume was adjusted to 250 μl with phosphate buffered saline. The tubes were incubated at 37° C. and then kept at 4° C. for 2 days. The precipitates were centrifuged, washed with cold Phosphate buffered saline, dissolved in 0.05 N NaOH and analyzed for protein by the method of Lowery et al. using bovine serum albumin as the standard. Hapten inhibition assays were carried out using 80 μg of amaranthin, 5 μg of asialo-ovine submaxillary mucins, and the indicated sugar concentrations. Inhibition was determined relative to the amount of precipitate formed in the control with no sugar added. All precipitation assays were conducted in duplicate to bring the tolerance within ±5% and the amount of precipitate formed average.

PNA [3] = biological target: T3, PNA (Arachis hypogaea, UniProt P02872); test: Hapten inhibition of PNA/asialoglycophorin precipitation; type: binding; conditions: for Relative Inhibition potency PNA: Galactose = 1, 40 μg PNA, 6 μg asialoglycophorin
T3 construct: purchased E.Y. Laboratories, San Mateo, Calif; (donated by Dr. A. Chu)
T3 sequence (P02872 24-273): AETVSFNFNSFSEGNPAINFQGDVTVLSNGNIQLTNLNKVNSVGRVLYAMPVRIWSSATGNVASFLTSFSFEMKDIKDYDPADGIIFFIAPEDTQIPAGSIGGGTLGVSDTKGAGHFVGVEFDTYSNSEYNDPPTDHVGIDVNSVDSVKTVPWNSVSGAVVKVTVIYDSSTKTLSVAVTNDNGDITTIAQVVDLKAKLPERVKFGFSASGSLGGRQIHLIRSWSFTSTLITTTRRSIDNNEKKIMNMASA
Method: (§2) Precipitation reactions with PNA were carried out similarly, except that 40 μg of PNA was used. Hapten inhibition studies with PNA used 40 μg of PNA, 6 μg of asialoglycophorin, and the indicated sugar concentrations.

amaranthin [4] = biological target: T2, amaranthin; test: Elution of amaranthin from Synsorb-T column; type: binding
Excerpt: The unbound material was washed from the Synsorb-T beads with phosphate buffered saline (PBS), and the A. caudatus lectin was eluted with 0.1 N acetic acid, pH 3. The Synsorb-T beads are fine particles of diatomaceous earth, or sand material bonded to the disaccharide Galβ1,3GalNAcα-O--(CH2)8 CO. […] Thus, it was necessary to reapply the unbound material to the affinity column to obtain the remaining lectin.
Elution of amaranthin from the affinity columns with non-specific agents was employed due to the expense and limited availability of Galβ1,3GalNAc, the best binding ligand. GalNAc (0.5 M) was effective in displacing amaranthin from the Synsorb-T matrix. However, when amaranthin (0.9 mg) was applied to a small Synsorb-T column (0.58 ml), it was observed that 100 μM Galβ1,3GalNAcα-O-benzyl eluted the lectin.

PNA [5] = biological target: T3, PNA; conditions: reported by Lotan, Pereira; cited from earlier work
amaranthin [6] = biological target: T2, amaranthin; test: Precipitation of amaranthin by glycoproteins and glycoconjugates, native or glycosidase treated; type: binding; conditions: for Precipitate formation with amarantin: Glycosidase: β-Galactosidase; for precipitation of amaranthin, in words: untreated glycoprotein or glycoconjugate, 80 μg amaranthin
Method: Glycosidase digestions, and in particular exo-β-galactosidase digestions were carried out for 9 hours at 37° C. in 0.1 M sodium citrate, pH 4.3 using 0.1 unit of enzyme/μmol of terminal galactosyl group. Endo-α-N-acetylgalactosaminidase treatment of asialo-ovine submaxillary mucin was done as described in Sadler, J. E., Rearick, J. L., Paulson, J. C., and Hill, R. L. (1979). GSC Exo-α-N-acetylgalactosaminidase digestion of asialo-ovine submaxillary mucin was carried out according to the recommendations of Genzyme of Boston, Mass. Glycoproteins were analyzed for carbohydrate composition, before and after glycosidase treatment, as described.
as §1

PNA [7] = biological target: T3, PNA; test: Precipitation reactions with PNA; type: binding
Method: as §2

PNA [8] = biological target: T3, PNA; conditions: reported by Pereira; cited from earlier work

T1 sequence (P18670 whole entry): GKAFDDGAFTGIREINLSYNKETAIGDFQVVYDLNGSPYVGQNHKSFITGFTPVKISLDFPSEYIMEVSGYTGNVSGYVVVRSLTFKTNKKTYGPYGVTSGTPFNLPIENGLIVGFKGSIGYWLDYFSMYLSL
T1 sequence (P18673 whole entry partner): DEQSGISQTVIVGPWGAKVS

Compound | IC50 (amaranthin [2]) [µM] | Relative Inhibition potency ACA (amaranthin [2]) | Relative Inhibition potency PNA (PNA [3]) | precipitation of amaranthin, in words (amaranthin [6]) | further results
CC(=O)N[C@H]1C(O)O[C@H](CO)[C@H](O)[C@@H]1O[C@@H]1O[C@H](CO)[C@H](O)[C@H](O)[C@H]1O (some centres unmarked) [Galβ1,3GalNAc] | 3.4 | 232 | – | – | times more potent than GalNAc [1]: 37; times more potent than galactose [1]: 100
C=CCO[C@H]1O[C@H](CO)[C@H](O)[C@H](O[C@@H]2O[C@H](CO)[C@H](O)[C@H](O)[C@H]2O)[C@H]1NC(C)=O [Galβ1,3GalNAcα-O-CH2 CH = CH2] | 2.1 | 376 | 38 | – | fold more potent than the anomeric β-O-allyl glycoside (amaranthin [2]; inhibitor of amaranthin): 16
CO[C@H]1O[C@H](CO)[C@H](O)[C@H](O[C@@H]2O[C@H](CO)[C@H](O)[C@H](O)[C@H]2O)[C@H]1NC(C)=O [Galβ1,3GalNAcα-O-CH3] | 3.1 | – | 47 | – | –
CC(=O)N[C@H]1[C@@H](OCc2ccccc2)O[C@H](CO)[C@H](O)[C@@H]1O[C@@H]1O[C@H](CO)[C@H](O)[C@H](O)[C@H]1O [Galβ1,3GalNAcα-O-benzyl] | 1.6 | 494 | 50 | – | concentration that eluted the lectin (amaranthin [4]; 0.9 mg amaranthin on 0.58 ml Synsorb-T column): 100 µM
COC(=O)CCCCCCCCO[C@H]1O[C@H](CO)[C@H](O)[C@H](O[C@@H]2O[C@H](CO)[C@H](O)[C@H](O)[C@H]2O)[C@H]1NC(C)=O [Galβ1,3GalNAcαO(CH2)8 -CH-CH3] | 1.8 | 439 | 47 | – | –
CO[C@@H]1O[C@H](CO)[C@H](O)[C@H](O[C@@H]2O[C@H](CO)[C@H](O)[C@H](O[C@@H]3O[C@H](CO)[C@H](O)[C@H](O)[C@H]3O)[C@H]2NC(C)=O)[C@H]1O [Galβ1,3GalNAcβ1,3Galβ-O--CH3] | – | < 0.08 | 38 | – | inhibition of amaranthin/AOSM precipitation, in words (amaranthin [2]): poor inhibitor
CO[C@H]1O[C@H](CO)[C@H](O)[C@H](O[C@@H]2O[C@H](CO)[C@H](O)[C@H](O)[C@H]2O)[C@H]1O [Galβ1,3Galα-O-CH3] | – | < 0.8 | 4.2 | – | inhibition of PNA, in words (PNA [3]): rather good inhibitors; inhibition of amaranthin/AOSM precipitation, in words (amaranthin [2]): very poor inhibitors
CC(=O)N[C@H]1C(O)O[C@H](CO)[C@@H](O[C@@H]2O[C@H](CO)[C@H](O)[C@H](O)[C@H]2O)[C@@H]1O (some centres unmarked) [Galβ1,4GlcNAc] | – | < 0.008 | – | – | inhibition of PNA, in words (PNA [5]): rather good inhibitors
CC(=O)N[C@H]1[C@H](O[C@H]2[C@@H](O)[C@@H](CO)O[C@@H](O[C@H]3[C@@H](O)[C@@H](CO)O[C@H](OCc4ccccc4)[C@@H]3NC(C)=O)[C@@H]2O)O[C@H](CO)[C@@H](O)[C@@H]1O [GlcNAcβ1,3Galβ1,3GalNAcα-O-benzyl] | 25 | 32 | < 10 | – | decrease of potency by a factor, against Galβ1,3GalNAcα-O-benzyl (amaranthin [2]; C'-3 substitution with GlcNAc): 10; fold lower reactivity compared with NeuAcα2,3Galβ1,3GalNAcα-O (amaranthin [2]; amaranthin): 10
CO[C@H]1O[C@H](CO)[C@H](O)[C@H](O)[C@H]1O [Methyl α-galactoside] | – | < 0.003 | 2.2 | – | –
CO[C@@H]1O[C@H](CO)[C@H](O)[C@H](O)[C@H]1O [Methyl β-galactoside] | – | < 0.003 | 0.8 | – | –
CC(=O)N[C@H]1C(O)O[C@H](CO)[C@H](O)[C@@H]1O (some centres unmarked) [N-Acetylgalactosamine] | 790 | – | < 0.4 | – | times less potent than Galβ1,3GalNAcα-O--R (α-linked T-antigen disaccharides) (amaranthin [2]; inhibitor of amaranthin): 350; inhibition of amaranthin/AOSM precipitation, in words (amaranthin [2]; listed as GalNAc): only monosaccharide found to inhibit; also recorded: inhibited by GalNAc; concentration effective in displacing amaranthin from the Synsorb-T matrix (amaranthin [4]): 0.5 M
Asialo-glycopeptide Mt: NH2-terminal 39 amino acids of asialoglycophorin with 12 Galβ1,3GalNAcα-O residues and one N-linked oligosaccharide (LSTTEVAMHTSTSSSVTKSYISSQTNDTHKRDTYAATPR; desialylated glycans; UniProt P02724 20-58, looked up, fragment) | – | – | – | reacted strongly; also recorded: reacts very well with amaranthin | Precipitate formation with amarantin (amaranthin [6]): No; Precipitate formation with amarantin (amaranthin [6]; listed as asialo-glycopeptide Mt): reactivity was eliminated; also recorded: no longer precipitates
Asialofetuin: desialylated fetuin | – | – | – | precipitated a small amount of amaranthin; also recorded: weak precipitation reaction | –
Galβ1,3GalNAcβ-O-BSA | – | – | – | – | precipitation of PNA, in words (PNA [7]): react equally well
Galβ1,3[NeuAcα2,6]GalNAcα-O-BSA | – | – | – | good precipitating agents; also recorded: can precipitate amaranthin | –
Galβ,3GalNAcα-O-BSA | – | – | – | good precipitating agents | precipitation of amaranthin, in words (amaranthin [6]; listed as Galβ1,3GalNAcα-O-BSA): can be precipitated by; precipitation of PNA, in words (PNA [7]): react equally well
NeuAcα2,3Galβ1,3GalNAcα-OBSA | – | – | – | good precipitating agents | precipitation of PNA, in words (PNA [7]): not precipitated
asialo-α1 -acidglycoprotein: desialylated α1-acid glycoprotein | – | – | – | did not precipitate amaranthin | precipitation of / reaction with PNA, in words (PNA [8]): precipitated by
bovine submaxillary mucin | – | – | – | did not form precipitates | –
fetuin: fetuin, three O-linked oligosaccharide chains per molecule | – | – | – | did not precipitate amaranthin; also recorded: does not precipitate fetuin | –
laminin | – | – | – | did not precipitate amaranthin | –
